Experimental data reported in ChEMBL document CHEMBL5291721, “A preclinical secondary pharmacology resource illuminates target-adverse drug reaction associations of marketed drugs” (Nat Commun, 2023).

How the values were obtained:
Adenosine receptor A3 = biological target: T1, Adenosine receptor A3 (Homo sapiens, UniProt P0DMS8)
T1 sequence (P0DMS8 whole entry): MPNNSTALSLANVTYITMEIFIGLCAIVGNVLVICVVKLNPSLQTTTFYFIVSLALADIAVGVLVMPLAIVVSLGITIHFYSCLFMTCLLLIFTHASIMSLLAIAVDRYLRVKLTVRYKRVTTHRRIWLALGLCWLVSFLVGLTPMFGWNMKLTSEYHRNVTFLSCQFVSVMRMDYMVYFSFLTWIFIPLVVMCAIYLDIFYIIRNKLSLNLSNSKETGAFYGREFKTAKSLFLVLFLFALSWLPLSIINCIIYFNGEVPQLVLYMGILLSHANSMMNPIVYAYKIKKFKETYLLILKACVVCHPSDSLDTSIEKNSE

[1] = biological target: T2, Alpha-1A adrenergic receptor (Homo sapiens, UniProt P35348); assay type: functional, cell-based
T2 sequence (P35348 whole entry): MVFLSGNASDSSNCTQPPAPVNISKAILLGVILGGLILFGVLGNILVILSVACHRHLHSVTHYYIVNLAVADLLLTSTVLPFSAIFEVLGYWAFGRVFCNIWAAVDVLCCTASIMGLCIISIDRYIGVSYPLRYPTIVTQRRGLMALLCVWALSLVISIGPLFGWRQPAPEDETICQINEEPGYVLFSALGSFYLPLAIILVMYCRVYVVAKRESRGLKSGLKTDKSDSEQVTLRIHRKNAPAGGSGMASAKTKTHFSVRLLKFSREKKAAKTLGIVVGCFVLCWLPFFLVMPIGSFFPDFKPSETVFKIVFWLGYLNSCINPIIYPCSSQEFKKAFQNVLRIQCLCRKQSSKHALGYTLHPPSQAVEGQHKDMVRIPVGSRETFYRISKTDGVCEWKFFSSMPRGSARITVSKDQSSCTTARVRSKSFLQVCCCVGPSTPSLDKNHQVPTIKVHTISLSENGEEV

[2] = biological target: T2, Alpha-1A adrenergic receptor; assay type: functional, cell-based; remark: listed apart in the source
Estrogen receptor = biological target: T3, Estrogen receptor (Homo sapiens, UniProt P03372)
T3 sequence (P03372 whole entry): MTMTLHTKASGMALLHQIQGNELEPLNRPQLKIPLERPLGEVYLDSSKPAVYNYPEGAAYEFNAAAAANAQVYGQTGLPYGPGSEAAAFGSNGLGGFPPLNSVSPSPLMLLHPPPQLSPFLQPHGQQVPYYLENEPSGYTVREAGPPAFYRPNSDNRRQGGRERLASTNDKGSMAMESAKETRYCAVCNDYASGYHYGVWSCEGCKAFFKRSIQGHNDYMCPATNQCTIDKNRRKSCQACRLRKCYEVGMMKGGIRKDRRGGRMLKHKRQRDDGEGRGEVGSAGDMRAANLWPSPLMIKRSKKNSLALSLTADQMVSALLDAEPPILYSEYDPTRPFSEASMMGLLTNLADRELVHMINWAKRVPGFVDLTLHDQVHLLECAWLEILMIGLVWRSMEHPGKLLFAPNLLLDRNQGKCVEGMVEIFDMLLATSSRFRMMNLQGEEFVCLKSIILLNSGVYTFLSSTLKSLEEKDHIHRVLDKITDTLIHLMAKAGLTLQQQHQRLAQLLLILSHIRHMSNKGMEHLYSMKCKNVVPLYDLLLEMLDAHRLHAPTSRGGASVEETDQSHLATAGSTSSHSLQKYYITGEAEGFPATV

[3] = biological target: 5-hydroxytryptamine receptor 2B (Homo sapiens, UniProt P41595); assay type: functional, cell-based
[4] = biological target: Voltage-gated inwardly rectifying potassium channel KCNH2 (Homo sapiens, UniProt Q12809); assay type: functional; conditions: read-out: AC50
[5] = biological target: cGMP-inhibited 3',5'-cyclic phosphodiesterase 3A (Homo sapiens, UniProt Q14432); assay type: functional
[6] = biological target: 3',5'-cyclic-AMP phosphodiesterase 4A (Homo sapiens, UniProt P27815); assay type: functional
Progesterone receptor = biological target: T4, Progesterone receptor (Homo sapiens, UniProt P06401)
T4 sequence (P06401 whole entry): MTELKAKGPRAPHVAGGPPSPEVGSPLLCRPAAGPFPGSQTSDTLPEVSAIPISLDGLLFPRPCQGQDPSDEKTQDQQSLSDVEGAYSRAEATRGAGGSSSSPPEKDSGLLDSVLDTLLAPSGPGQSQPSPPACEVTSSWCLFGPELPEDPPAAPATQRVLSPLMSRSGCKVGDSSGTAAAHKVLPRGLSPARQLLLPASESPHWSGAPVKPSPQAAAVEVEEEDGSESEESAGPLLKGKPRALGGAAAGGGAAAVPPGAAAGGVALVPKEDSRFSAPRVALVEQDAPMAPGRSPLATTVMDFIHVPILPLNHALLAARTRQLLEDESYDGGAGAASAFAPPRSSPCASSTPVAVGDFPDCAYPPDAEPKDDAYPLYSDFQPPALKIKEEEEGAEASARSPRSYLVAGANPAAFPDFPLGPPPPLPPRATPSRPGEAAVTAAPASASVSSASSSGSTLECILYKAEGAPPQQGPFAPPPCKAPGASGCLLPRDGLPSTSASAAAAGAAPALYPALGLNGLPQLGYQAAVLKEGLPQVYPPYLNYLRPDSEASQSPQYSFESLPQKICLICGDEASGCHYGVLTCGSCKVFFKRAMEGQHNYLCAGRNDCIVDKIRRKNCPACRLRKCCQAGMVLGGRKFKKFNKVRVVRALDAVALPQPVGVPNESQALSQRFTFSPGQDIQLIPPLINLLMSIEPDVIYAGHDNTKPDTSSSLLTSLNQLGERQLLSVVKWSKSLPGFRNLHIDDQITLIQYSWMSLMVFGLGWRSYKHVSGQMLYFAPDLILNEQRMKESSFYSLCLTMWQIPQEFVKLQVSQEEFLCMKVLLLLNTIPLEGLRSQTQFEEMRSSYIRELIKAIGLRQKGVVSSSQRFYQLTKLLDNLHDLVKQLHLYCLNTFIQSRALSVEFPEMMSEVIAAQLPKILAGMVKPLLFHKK

[7] = biological target: Prostaglandin G/H synthase 1 (Homo sapiens, UniProt P23219); assay type: functional
[8] = biological target: Sodium-dependent dopamine transporter (Homo sapiens, UniProt Q01959)
[9] = biological target: Sodium-dependent serotonin transporter (Homo sapiens, UniProt P31645)
Also: assay procedure not described here.

Chain of 5-hydroxytryptamine receptor 2B (P41595 whole entry): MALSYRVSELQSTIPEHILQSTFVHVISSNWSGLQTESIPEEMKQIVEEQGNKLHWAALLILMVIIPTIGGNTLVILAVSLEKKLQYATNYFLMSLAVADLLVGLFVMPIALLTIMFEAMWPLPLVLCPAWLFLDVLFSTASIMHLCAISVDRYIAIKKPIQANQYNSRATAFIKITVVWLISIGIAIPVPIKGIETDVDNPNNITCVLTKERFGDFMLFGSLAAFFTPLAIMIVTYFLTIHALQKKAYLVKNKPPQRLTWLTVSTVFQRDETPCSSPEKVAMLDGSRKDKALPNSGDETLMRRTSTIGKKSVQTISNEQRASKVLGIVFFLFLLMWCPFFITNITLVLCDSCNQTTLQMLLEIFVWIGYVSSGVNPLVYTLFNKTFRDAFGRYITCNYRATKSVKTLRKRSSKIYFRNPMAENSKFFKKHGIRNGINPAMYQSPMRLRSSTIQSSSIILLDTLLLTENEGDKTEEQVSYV
Chain of Voltage-gated inwardly rectifying potassium channel KCNH2 (Q12809 whole entry): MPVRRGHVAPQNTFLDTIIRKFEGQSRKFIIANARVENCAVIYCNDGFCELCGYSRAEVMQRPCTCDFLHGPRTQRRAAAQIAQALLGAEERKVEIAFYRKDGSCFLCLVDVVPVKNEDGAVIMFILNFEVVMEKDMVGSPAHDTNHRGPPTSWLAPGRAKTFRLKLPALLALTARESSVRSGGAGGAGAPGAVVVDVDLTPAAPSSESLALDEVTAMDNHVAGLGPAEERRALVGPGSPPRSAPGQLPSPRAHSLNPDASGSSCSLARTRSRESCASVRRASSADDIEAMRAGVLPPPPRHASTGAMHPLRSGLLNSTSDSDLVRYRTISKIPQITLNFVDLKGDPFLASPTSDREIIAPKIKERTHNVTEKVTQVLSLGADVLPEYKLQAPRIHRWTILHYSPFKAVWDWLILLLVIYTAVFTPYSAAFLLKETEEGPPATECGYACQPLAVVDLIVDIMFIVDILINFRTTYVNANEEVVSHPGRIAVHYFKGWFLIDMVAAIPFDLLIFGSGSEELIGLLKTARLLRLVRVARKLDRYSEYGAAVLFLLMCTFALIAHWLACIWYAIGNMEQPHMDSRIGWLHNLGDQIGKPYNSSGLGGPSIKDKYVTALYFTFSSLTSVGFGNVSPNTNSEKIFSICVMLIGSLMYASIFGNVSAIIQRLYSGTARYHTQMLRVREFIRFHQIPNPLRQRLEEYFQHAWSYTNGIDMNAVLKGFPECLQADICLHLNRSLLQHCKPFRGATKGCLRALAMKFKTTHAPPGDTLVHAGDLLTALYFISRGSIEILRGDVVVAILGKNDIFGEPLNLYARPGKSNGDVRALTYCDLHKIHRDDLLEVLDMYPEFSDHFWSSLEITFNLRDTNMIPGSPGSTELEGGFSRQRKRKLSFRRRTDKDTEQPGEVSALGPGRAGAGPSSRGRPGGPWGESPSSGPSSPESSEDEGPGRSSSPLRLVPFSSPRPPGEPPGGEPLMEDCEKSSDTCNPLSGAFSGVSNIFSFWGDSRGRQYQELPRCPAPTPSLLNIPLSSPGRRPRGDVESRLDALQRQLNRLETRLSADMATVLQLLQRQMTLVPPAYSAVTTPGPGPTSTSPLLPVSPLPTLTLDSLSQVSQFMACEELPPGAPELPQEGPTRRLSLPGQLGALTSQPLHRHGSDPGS
Chain of 3',5'-cyclic-AMP phosphodiesterase 4A (P27815 whole entry): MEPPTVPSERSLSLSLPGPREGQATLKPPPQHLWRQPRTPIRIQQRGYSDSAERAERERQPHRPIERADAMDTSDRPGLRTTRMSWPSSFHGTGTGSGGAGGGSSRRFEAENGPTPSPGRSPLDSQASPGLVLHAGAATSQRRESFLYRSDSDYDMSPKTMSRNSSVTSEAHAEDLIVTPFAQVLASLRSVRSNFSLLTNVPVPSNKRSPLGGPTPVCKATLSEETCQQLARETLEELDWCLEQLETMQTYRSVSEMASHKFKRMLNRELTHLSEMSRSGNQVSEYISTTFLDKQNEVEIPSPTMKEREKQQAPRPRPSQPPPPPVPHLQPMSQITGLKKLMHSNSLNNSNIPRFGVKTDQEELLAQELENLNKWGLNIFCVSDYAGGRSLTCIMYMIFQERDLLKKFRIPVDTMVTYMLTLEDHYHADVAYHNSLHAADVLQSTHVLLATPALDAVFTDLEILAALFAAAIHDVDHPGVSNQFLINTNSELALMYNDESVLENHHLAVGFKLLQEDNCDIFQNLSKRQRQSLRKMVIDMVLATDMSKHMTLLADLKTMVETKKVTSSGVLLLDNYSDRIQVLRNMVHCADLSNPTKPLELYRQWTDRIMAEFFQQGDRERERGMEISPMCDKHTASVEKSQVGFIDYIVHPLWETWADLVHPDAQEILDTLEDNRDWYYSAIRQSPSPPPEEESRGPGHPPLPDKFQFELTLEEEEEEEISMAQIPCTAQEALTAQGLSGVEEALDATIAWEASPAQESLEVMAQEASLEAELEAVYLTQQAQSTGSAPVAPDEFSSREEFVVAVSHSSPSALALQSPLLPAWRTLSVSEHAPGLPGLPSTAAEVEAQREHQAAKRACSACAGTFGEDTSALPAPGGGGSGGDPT
Chain of Prostaglandin G/H synthase 1 (P23219 whole entry): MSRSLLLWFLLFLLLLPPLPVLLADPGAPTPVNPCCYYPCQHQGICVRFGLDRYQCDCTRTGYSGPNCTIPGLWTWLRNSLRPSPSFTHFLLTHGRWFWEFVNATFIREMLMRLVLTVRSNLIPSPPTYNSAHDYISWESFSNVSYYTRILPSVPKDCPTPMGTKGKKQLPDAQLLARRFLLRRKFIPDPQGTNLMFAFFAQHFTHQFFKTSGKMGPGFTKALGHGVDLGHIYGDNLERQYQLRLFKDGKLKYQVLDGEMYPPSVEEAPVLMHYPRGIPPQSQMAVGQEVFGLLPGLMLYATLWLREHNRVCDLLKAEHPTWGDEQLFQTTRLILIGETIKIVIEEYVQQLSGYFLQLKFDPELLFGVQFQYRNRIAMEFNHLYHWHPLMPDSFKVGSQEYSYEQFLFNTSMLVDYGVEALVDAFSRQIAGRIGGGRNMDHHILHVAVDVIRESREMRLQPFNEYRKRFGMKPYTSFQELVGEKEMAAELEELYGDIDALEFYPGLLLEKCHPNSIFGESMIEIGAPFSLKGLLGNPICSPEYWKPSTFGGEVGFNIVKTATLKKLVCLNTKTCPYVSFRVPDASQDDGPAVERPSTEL
Chain of cGMP-inhibited 3',5'-cyclic phosphodiesterase 3A (Q14432 whole entry): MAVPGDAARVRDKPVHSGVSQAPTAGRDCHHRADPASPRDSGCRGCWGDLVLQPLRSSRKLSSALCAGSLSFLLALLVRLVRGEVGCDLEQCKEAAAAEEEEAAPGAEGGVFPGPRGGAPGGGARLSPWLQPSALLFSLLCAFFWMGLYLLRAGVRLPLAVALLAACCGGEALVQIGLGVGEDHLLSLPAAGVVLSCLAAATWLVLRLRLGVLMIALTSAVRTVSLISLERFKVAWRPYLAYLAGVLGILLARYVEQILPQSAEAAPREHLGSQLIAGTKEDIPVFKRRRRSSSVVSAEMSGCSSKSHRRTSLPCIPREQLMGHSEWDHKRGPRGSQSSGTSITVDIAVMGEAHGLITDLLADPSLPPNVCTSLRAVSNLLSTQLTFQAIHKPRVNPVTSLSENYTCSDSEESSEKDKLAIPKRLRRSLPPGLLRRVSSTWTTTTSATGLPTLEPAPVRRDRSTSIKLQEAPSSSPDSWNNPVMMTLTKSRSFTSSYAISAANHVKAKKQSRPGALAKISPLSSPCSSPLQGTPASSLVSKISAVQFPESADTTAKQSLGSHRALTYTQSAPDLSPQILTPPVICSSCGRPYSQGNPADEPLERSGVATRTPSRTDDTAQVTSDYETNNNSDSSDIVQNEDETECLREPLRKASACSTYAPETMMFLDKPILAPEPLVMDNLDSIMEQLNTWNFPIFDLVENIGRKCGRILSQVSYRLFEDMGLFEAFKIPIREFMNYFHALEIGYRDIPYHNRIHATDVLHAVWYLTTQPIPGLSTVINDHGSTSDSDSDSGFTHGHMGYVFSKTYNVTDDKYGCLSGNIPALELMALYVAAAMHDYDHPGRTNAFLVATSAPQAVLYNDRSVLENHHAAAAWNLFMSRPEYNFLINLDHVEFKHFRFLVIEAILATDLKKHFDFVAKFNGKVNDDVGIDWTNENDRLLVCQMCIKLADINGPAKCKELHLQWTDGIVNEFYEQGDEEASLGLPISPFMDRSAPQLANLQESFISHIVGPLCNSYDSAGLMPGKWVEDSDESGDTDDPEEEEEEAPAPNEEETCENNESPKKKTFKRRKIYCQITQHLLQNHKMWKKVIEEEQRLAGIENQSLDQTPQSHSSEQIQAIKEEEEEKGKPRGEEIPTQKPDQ
Chain of Sodium-dependent serotonin transporter (P31645 whole entry): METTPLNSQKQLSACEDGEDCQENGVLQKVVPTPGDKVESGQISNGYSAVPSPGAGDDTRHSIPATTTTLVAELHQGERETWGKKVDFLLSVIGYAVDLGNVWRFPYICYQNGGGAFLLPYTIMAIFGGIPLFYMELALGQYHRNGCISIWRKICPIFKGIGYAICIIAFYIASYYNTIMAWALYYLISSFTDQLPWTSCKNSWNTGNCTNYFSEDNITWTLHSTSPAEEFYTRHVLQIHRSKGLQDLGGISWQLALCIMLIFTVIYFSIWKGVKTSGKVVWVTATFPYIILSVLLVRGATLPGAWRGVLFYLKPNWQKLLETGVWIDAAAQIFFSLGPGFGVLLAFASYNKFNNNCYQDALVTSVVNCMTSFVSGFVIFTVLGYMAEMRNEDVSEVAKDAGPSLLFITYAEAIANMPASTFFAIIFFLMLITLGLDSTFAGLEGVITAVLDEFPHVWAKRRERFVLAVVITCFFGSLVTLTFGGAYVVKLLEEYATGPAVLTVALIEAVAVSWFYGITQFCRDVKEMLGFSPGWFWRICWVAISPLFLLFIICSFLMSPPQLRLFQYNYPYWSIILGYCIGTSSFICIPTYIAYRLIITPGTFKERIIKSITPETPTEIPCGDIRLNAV

Structure (SMILES) | AC50 (Adenosine receptor A3) [µM] | AC50 [1] [µM] | AC50 [2] [µM] | AC50 (Estrogen receptor) [µM] | AC50 [3] [µM] | AC50 [4] [µM] | AC50 [5] [µM] | AC50 [6] [µM] | AC50 (Progesterone receptor) [µM] | AC50 [7] [µM] | AC50 [8] [µM] | AC50 [9] [µM]
O=[N+]([O-])O[C@H]1CO[C@H]2[C@@H]1OC[C@H]2O[N+](=O)[O-] [ISOSORBIDE DINITRATE] | > 30 | > 30 | > 30 | > 30 | > 30 | > 30 | > 30 | > 30 | > 30 | > 30 | > 30 | > 30
CCCCCCCCCCCCCCCCCC(=O)NCCCC[C@H](NC(=O)CC[C@@H](NC(=O)[C@H](C)NC(=O)[C@@H](C)O[C@H]1[C@H](O)[C@@H](CO)OC(O)[C@@H]1NC(C)=O)C(N)=O)C(=O)O (some centres not stated) [ROMURTIDE] | 2.2 | > 30 | 13.3 | 22.2 | > 30 | 26 | > 30 | > 3 | 2.94 | 5.94 | > 30 | > 30
COC(=O)C1=C(C)NC(C)=C(C(=O)O[C@H]2CCN(Cc3ccccc3)C2)[C@H]1c1cccc([N+](=O)[O-])c1 [BARNIDIPINE] | 4.65 | > 30 | 1.31 | > 30 | > 30 | 1.8 | > 30 | > 30 | 5.55 | > 30 | 1.9 | 13.6
C1CNCCN1 [PIPERAZINE] | > 30 | > 30 | > 30 | > 30 | > 30 | > 30 | > 30 | 28.4 | > 30 | > 30 | > 30 | > 30
CO[C@H]1[C@@H](O)C[C@H](O[C@H]2[C@@H](O)C[C@H](O[C@H]3[C@@H](O)C[C@H](O[C@H]4CC[C@@]5(C)[C@H](CC[C@@H]6[C@@H]5C[C@@H](O)[C@]5(C)[C@@H](C7=CC(=O)OC7)CC[C@]65O)C4)O[C@@H]3C)O[C@@H]2C)O[C@@H]1C [METILDIGOXIN] | > 30 | > 30 | > 30 | > 30 | > 30 | > 30 | > 30 | > 30 | > 30 | > 30 | > 30 | > 30
Nc1nc(N)nc(Nc2ccc([As]3SCC(CO)S3)cc2)n1 (configuration not stated) [MELARSOPROL] | 1.92 | > 30 | > 30 | > 30 | > 30 | > 10 | > 30 | 14.5 | > 30 | > 30 | 29.2 | > 30
N[C@@H](Cc1c[nH]c2ccc(O)cc12)C(=O)O [OXITRIPTAN] | 0.765 | > 30 | > 30 | > 30 | 10.1 | > 30 | > 30 | > 30 | > 30 | > 3 | > 30 | 15.5
CC(=O)O[C@H]1C[C@H](O[C@H]2[C@@H](O)C[C@H](O[C@H]3[C@@H](O)C[C@H](O[C@H]4CC[C@@]5(C)[C@H](CC[C@@H]6[C@@H]5C[C@@H](O)[C@]5(C)[C@@H](C7=CC(=O)OC7)CC[C@]65O)C4)O[C@@H]3C)O[C@@H]2C)O[C@H](C)[C@H]1O[C@@H]1O[C@H](CO)[C@@H](O)[C@H](O)[C@H]1O [LANATOSIDE C] | > 30 | > 30 | > 30 | > 30 | > 30 | > 30 | > 30 | > 30 | > 30 | > 30 | > 30 | > 30
Nc1ncnc(Nc2ccc(Cl)cc2)n1 [CHLORAZANIL] | 7.95 | > 30 | > 30 | > 30 | > 30 | > 30 | > 30 | 19.7 | > 30 | > 30 | > 30 | > 30
COc1cc([C@@H]2c3cc4c(cc3[C@@H](O[C@@H]3O[C@@H]5CO[C@@H](c6cccs6)O[C@H]5[C@H](O)[C@H]3O)[C@H]3COC(=O)[C@H]23)OCO4)cc(OC)c1O [TENIPOSIDE] | > 30 | > 30 | > 30 | > 30 | > 30 | > 30 | > 3 | > 30 | > 30 | > 30 | > 30 | > 30
CC(=O)OC(C)OC(=O)C(C)c1ccc(-c2ccccc2)c(F)c1 (configuration not stated) | > 30 | > 30 | > 30 | > 30 | > 30 | > 30 | > 30 | 20.2 | 25.4 | 0.0309 | > 30 | > 30
